Laboratory results: patent publication US12509653B2, “Organ chip to model mammalian joint” (University of Pittsburgh—Of the Commonwealth System of …, priority 2017, dated 2025)

How the values were obtained:
synovial cells (SM) = experiment: IL-1β stimulation of synovial cells in the microJoint (OA model), gene expression; type: cell-based, human; details: 10 ng/mL, 24 h
Protocol: To model OA in the microJoint, the pro-inflammatory cytokine interleukin (IL)-1β (10 ng/mL) was used to stimulate synovial cells for 24 h. Afterwards, IL-1β was withdrawn and inflamed synovium-conditioned medium was perfused through cartilage and FP tissues. […] M0/M1 macrophages can be introduced into the different tissues to investigate their interactions with other cells and implications on OA pathologies.
Different engineered joint tissues, including osteochondral complex (bone and cartilage), synovium, and fat pad were prepared as modules for convenient integration in the bioreactor. After maturation, they were integrated into a bioreactor (FIG. 28). Their interconnection was guided via directional fluidic flow of the culture medium to simulate in vivo physiology (FIG. 29). The bioreactors and accessories were manufactured by 3D printing. Micro-tissues were engineered by encapsulating P5 human MSCs in UV-photocrosslinked 15% methacrylated gelatin (GelMA), and differentiating and maturing them in different types of induction media. The health of individual tissues was assessed by real-time polymerase chain reaction (RT-PCR), histology and enzyme-linked immunosorbent assay (ELISA).

[1] = system: chondrocytes and osteoblasts in the bioreactor; experiment: RT-PCR marker expression in cartilage and bone chambers of the bioreactor under hormone stimulation; type: cell-based; details: progesterone progressively added to estradiol (week 3 and 4); higher when hormones directly applied to cartilage
Protocol: Differential expression of markers (as determined by RT-PCR) was evaluated in a control medium that contained no estrogen or progesterone (first bar), and then different concentrations of hormones supplied to the chambers during week 1 (w1: 0.1 nM estradiol), week 2 (w2: 1 nM estradiol), week 3 (w3: 1 nM estradiol and 10 nM progesterone), and week 4 (w4: 0.1 nM estradiol and 50 nM progesterone). Differential expression of markers was determined in a control medium that contained no estrogen or progesterone (first bar), and then different concentrations of hormones supplied to the cartilage chamber during week 1 (w1: 0.1 nM estradiol), week 2 (w2: 1 nM estradiol), week 3 (w3: 1 nM estradiol and 10 nM progesterone), and week 4 (w4: 0.1 nM estradiol and 50 nM progesterone).

| Compound | expression levels of major catabolic genes in SM (synovial cells (SM)) | cartilage anabolic markers, progesterone added [1] |
| --- | --- | --- |
| IL-1β: pro-inflammatory cytokine interleukin (IL)-1β used to stimulate synovial cells | significantly upregulated |  |
| CC(=O)[C@H]1CC[C@H]2[C@@H]3CCC4=CC(=O)CC[C@]4(C)[C@H]3CC[C@]12C [progesterone] |  | downregulation is still present |
